According to patent US12358899B2, “Thyroid hormone receptor agonists and uses thereof” (XIZANG HAISCO PHARMACEUTICAL CO., LTD., priority 2018, dated 2025):

Test system: C57BL/6cnc mice
Experiment: Synergistic effect of Example 7 with other NASH compounds in mouse model
Assay type: in vivo
Details: NASH mice, single agents, 2-week treatment
Text: There are other candidates being developped for inflammation, metabolism syndromes or NASH These include glucagon-like peptide-1 (GLP-1) receptor agonist liraglutide, peroxisome proliferator-activated receptor-α and -β (PPAR-α/δ) agonist elafibranor, and nuclear erythroid 2-related factor 2 (NRF2) activator bardoxolone methyl (CDDO-Me). These candidates target different proteins and pathways, therefore have different mechanisms of action related to steatosis, inflammation, and fibrosis.
C57BL/6cnc mice were fed with high-fat diet containing 60 kacl % fat and 0.10% methionine (no added choline) (Research Diets, A06071302) for 12 weeks to induce NASH model. After 12-week diet induction, the mice had increased plasma levels of TC, LDL-c, ALT, and fibrosis markers. […] An Example 7 alone group and a vehicle group were also set up for controls. […] After 2-week treatment, serum biochemistry was measured; liver was collected to measure liver TC and TG. Livers were punched in 2 mm diameter and fixed, sectioned and stained with Sirius Red, and the fibrosis and steatosis were scored.

Compound: CSc1ccc(C(=O)/C=C/c2cc(C)c(OC(C)(C)C(=O)O)c(C)c2)cc1 [Elafibranor, reference compound]
- liver weight, liver TC, liver TG, plasma TC, LDL-c, ALT, fibrosis, steatosis: reduced all or some of these parameters
